We go through eleven compounds from ChEMBL document CHEMBL1201862, “PubChem BioAssay data set” (2004).

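Where inhibition never reached the appropriate level, the endpoint shown equals the highest concentration tested. Otherwise, values were interpolated linearly from a five-concentration, 48-hour dose response in 96-well plates. Abbreviation: GI50, concentration required for 50% inhibition of growth.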 Active and inactive are the calls of the source. Cut-off read from the data, not from the text of the source: active = GI50 up to about 1.1 µM and inactive = higher.

Common to all, as to assay: DTP human tumour cell line panel, 48 h
In assay [1] the test system is SK-MEL-5.
Assay [2] concerns MDA-MB-231.
Assay [3] deals with NCI-H460.
Assay [4] relates to Hs-578T.
Assay [5] relates to SNB-19.
Assay [6] has as its system OVCAR-3.
Assay [7] deals with HCC 2998.
In assay [8] the test system is MOLT-4.
For assay [9], the system named is SF-295.
Assay [10] has as its system EKVX.
Assay [11] deals with UO-31.
Assay [12] deals with RXF 393.
Assay [13] concerns CCRF-CEM.
Assay [14] deals with 786-0.
For assay [15], the system named is SR.
For assay [16], the system named is A498.
The test system of assay [17] is OVCAR-5.
For assay [18], the system named is Malme-3M.
The test system of assay [19] is SW-620.
In assay [20] the test system is T47D.

As to `COc1cc(C2CC(C)(Nc3ccccc3)Oc3cc4c(cc32)OCO4)cc(OC)c1OC` (centres undefined), the GI50 in assay [1] was 0.153 µM (active); in assay [2], 0.853 µM (active); in [3], 0.327 µM (active); in assay [4], 0.105 µM (active); in [5], 0.736 µM (active); in assay [6] it was 0.219 µM (active). Also, the GI50 in assay [7] is 0.729 µM (active); in assay [8], 0.535 µM (active); in assay [9] it was 0.199 µM (active); in assay [10], 1.82 µM (inactive); in assay [11], 1.2 µM (inactive); in assay [12], 0.222 µM (active). Moreover, the concentration for 50% growth inhibition (GI50) in assay [13] is 0.124 µM (active); in [14], 0.298 µM (active); in assay [15], 0.239 µM (active); in assay [16], 2.97 µM (inactive); in assay [17] it was 2.71 µM (inactive); in assay [18], 3.29 µM (inactive). The GI50 in assay [19] is 0.234 µM (active).

Take `Cc1csc2n(C)c(=O)c3ccccc3[n+]12`: the GI50 is 98.4 µM (inactive) in assay [1]; > 100 µM (inactive) in [2]; > 100 µM (inactive) in assay [3]; > 100 µM (inactive) in assay [4]; > 100 µM (inactive) in assay [5]; > 100 µM (inactive) in [6]. The GI50 in [7], in assay [8], in assay [9], in assay [10], in assay [20] and in assay [11] was > 100 µM (inactive) in each case. Besides, the GI50 in [12], in assay [13], in assay [14], in [15], in assay [17] and in assay [19] was > 100 µM (inactive) in each case.

Take `CC(C(=O)O)/C(=C\c1ccc2c(c1)OCO2)C(=O)O` (centres undefined): the GI50 in assay [1], in assay [2], in assay [3], in assay [4], in assay [5] and in [6] was > 100 µM (inactive) each time. Further, the GI50 in assay [7] is > 100 µM (inactive); in [8], > 6.89 µM (inactive); in [9], > 100 µM (inactive); in [10], > 53.6 µM (inactive); in assay [20], > 100 µM (inactive); in [11], > 100 µM (inactive). The GI50 is > 100 µM (inactive) in [12]; > 100 µM (inactive) in [14]; > 100 µM (inactive) in [16]; > 10 µM (inactive) in assay [17]; > 100 µM (inactive) in [18]; > 100 µM (inactive) in assay [19].

Consider `Cc1cc(=O)oc2c(CNC(CO)C(=O)O)c(O)ccc12` (centres undefined), for which the GI50 in [1], in assay [2], in assay [3], in [4], in assay [5] and in assay [6] was > 100 µM (inactive) in each case. Further, the GI50 in assay [8] was > 100 µM (inactive); in assay [9] it was > 100 µM (inactive); in assay [10], > 100 µM (inactive); in assay [20], > 100 µM (inactive); in assay [11], 73.1 µM (inactive); in assay [12], > 100 µM (inactive). The GI50 is > 100 µM (inactive) in assay [13]; > 100 µM (inactive) in assay [14]; 94.2 µM (inactive) in assay [15]; > 100 µM (inactive) in assay [17]; > 100 µM (inactive) in assay [18]; > 100 µM (inactive) in assay [19].

As to `CN(C)c1ccc(-c2nc(-c3cc4c(ccc5ccccc54)oc3=O)cs2)cc1`, the GI50 in assay [1], in assay [2], in [3], in assay [4], in assay [5] and in assay [7] was > 100 µM (inactive) each time. The GI50 in assay [8], in assay [9], in assay [10], in assay [20], in [11] and in assay [12] was > 100 µM (inactive) throughout. The GI50 in assay [13], in [14], in assay [15], in assay [17], in assay [18] and in assay [19] was > 100 µM (inactive) throughout.

Regarding `O=[N+]([O-])C(/C(Cl)=C(/Cl)N1CCOCC1)=C1\Nc2ccccc2O1`, the GI50 in assay [2] was > 100 µM (inactive); in assay [3], 12.7 µM (inactive); in assay [4], > 100 µM (inactive); in assay [5], > 100 µM (inactive); in [6], 24.4 µM (inactive); in assay [7], 16.1 µM (inactive). The GI50 in assay [8], in assay [9], in assay [10], in assay [20], in assay [11] and in assay [13] was > 100 µM (inactive) each time. In addition, the GI50 in assay [14], in [16], in [17], in [18] and in assay [19] was > 100 µM (inactive) in each case.

Consider `O=c1oc2ccccc2c(O)c1C(C/C(CCN1CCCC1)=N/O)c1ccccc1` (centres undefined), for which the GI50 in assay [1], in assay [2], in assay [3], in assay [4], in [5] and in assay [6] was > 100 µM (inactive) throughout. In addition, the GI50 in assay [7] is > 100 µM (inactive); in assay [8], > 48 µM (inactive); in [9], > 100 µM (inactive); in [10] it was > 100 µM (inactive); in assay [20], 7.87 µM (inactive); in assay [11], > 100 µM (inactive). In addition, the GI50 in assay [14], in assay [15], in assay [16], in [17], in assay [18] and in [19] was > 100 µM (inactive) throughout.

Turning to `CCN(CC)CCNc1ccc2ncn3c4ccc(OC)cc4c(=O)c1c23`, the GI50 in assay [1] is 6.07 µM (inactive); in assay [3], 0.646 µM (active); in assay [4], 11.1 µM (inactive); in [5] it was 3.76 µM (inactive); in [6] it was 7.78 µM (inactive); in assay [7] it was 2.78 µM (inactive). The GI50 in assay [8] was 0.31 µM (active); in assay [9], 2.28 µM (inactive); in assay [10], 14.9 µM (inactive); in [20], 20 µM (inactive); in [11], 1.82 µM (inactive); in [12], 2.23 µM (inactive). For the same compound, the GI50 in assay [13] is 1.34 µM (inactive); in assay [14], 2.22 µM (inactive); in assay [15], 1.85 µM (inactive); in assay [16], 6.7 µM (inactive); in [17], 8.61 µM (inactive); in assay [18], 9.12 µM (inactive). In addition, the GI50 in assay [19] is 1.36 µM (inactive).

As to `S=C=NC1CCC(c2cc3ccccc3s2)(N2CCCCC2)CC1` (centres undefined), the GI50 in assay [1] is 1.56 µM (inactive); in assay [3] it was 1.87 µM (inactive); in [4], 2.08 µM (inactive); in assay [5] it was 2.79 µM (inactive); in assay [6] it was 2.09 µM (inactive); in assay [7], 1.8 µM (inactive). Moreover, the GI50 in [8] is 0.127 µM (active); in assay [9], 2.58 µM (inactive); in assay [10], 2.16 µM (inactive); in assay [20], 2.99 µM (inactive); in assay [11], 2.19 µM (inactive); in assay [12], 1.72 µM (inactive). Besides, the GI50 in assay [13] was 0.577 µM (active); in assay [14] it was 1.78 µM (inactive); in assay [15] it was 0.071 µM (active); in assay [16] it was 2.26 µM (inactive); in assay [17], 1.75 µM (inactive); in [18], 1.61 µM (inactive). Further, in [19], the GI50 is 2.02 µM (inactive).

With `Nc1ccccc1C(=O)CCC1C(=O)NC(=S)NC1=O`, the GI50 in assay [1], in [3], in assay [4], in assay [5], in assay [6] and in assay [7] was > 100 µM (inactive) each time. The GI50 in [8], in [9], in [10], in assay [20], in assay [11] and in assay [12] was > 100 µM (inactive) each time. Further, the GI50 in assay [13], in assay [14], in assay [15], in assay [16], in assay [17] and in [18] was > 100 µM (inactive) in each case. Moreover, in assay [19], the GI50 was > 100 µM (inactive).

As for `COC(=O)C(CCSC)NC(=O)CNC(=O)CSc1nnc(COc2ccc(Cl)cc2)n1-c1ccccc1` (centres undefined), the GI50 was 17.3 µM (inactive) in [1]; 16 µM (inactive) in assay [2]; 17.5 µM (inactive) in assay [3]; 22.3 µM (inactive) in assay [4]; 69.3 µM (inactive) in assay [5]; 14 µM (inactive) in assay [7]. In addition, the GI50 is 5.36 µM (inactive) in [8]; 18.4 µM (inactive) in assay [20]; 10.4 µM (inactive) in [11]; 18.6 µM (inactive) in [12]; 7.83 µM (inactive) in [13]; 16 µM (inactive) in assay [14]. For the same compound, the GI50 in assay [16] was 29.1 µM (inactive); in [17], 19 µM (inactive); in [18], 18 µM (inactive); in assay [19] it was 20.3 µM (inactive).
